The target of assay [1] is Mtb DnaK oligomers and DnaK-GrpE complex (Mycobacterium tuberculosis, UniProt P9WMJ9, T175A). The format is binding.
The target in assay [2] is full-length apo DnaK (DnaK^FL) (Mycobacterium tuberculosis, UniProt P9WMJ9, T175A). The format is binding.
In assay [3] the target is apo, ATP-bound or ADP-bound DnaK T175A (Mycobacterium tuberculosis, UniProt P9WMJ9, T175A).
For another assay, the system named is DnaK^NBD. Format: binding. The note with it: ITC.
Assay [4] deals with Mtb DnaK mutants (Mycobacterium tuberculosis, UniProt P9WMJ9). Format: biochemical.
In assay [5] the target is Mtb DnaK mutants (Mycobacterium tuberculosis, UniProt P9WMJ9, R127A). Format: biochemical.
Assay [6] concerns the target Mtb DnaK mutants (Mycobacterium tuberculosis, UniProt P9WMJ9, E514A). The format is biochemical.
Assay [7] addresses Mtb DnaK Phe400Ala, Thr401Ala (Mycobacterium tuberculosis, UniProt P9WMJ9, F400A). The format is binding.

As for `CNC(=O)[C@H]1O[C@@H](n2cnc3c(NCc4cccc(I)c4)nc(Cl)nc32)[C@H](O)[C@@H]1O` [MECA, 2Cl-IB-MECA], the DnaK-GrpE complex formation entry in assay [1] is “not affected”. Also, the “binding to DnaK alone” value in assay [2] is listed as “does not bind to DnaK alone”.

With `CCC[C@H](NC(=O)[C@@H]1[C@H]2CCC[C@H]2CN1C(=O)[C@@H](NC(=O)[C@@H](NC(=O)c1cnccn1)C1CCCCC1)C(C)(C)C)C(=O)C(=O)NC1CC1` [TP, Telaprevir], in assay [3], the “cleavage of DnaK by proteinase K” value is on record as “protects full-length DnaK from cleavage”. The “interaction with DnaK^NBD” value in the assay on DnaK^NBD was “no interaction”. Besides, on Mtb DnaK mutants [4], the “ATPase activity of DnaK lacking last ~110 residues (A513-K625)” value is recorded as “still disrupted ATPase activity”. Further, the “ATPase activity of DnaK Arg127Ala with excess TP” value at Mtb DnaK mutants [5] is listed as “tolerance to excess TP”. In addition, the “increase in the IC50 value compared to wild-type” value on Mtb DnaK mutants [6] is 1.4 fold. Moreover, the “oligomeric state of apo DnaK” value in assay [1] is “inhibited formation of dimers and higher order oligomers”. In assay [2], the “stoichiometry TP: DnaK” value is reported as ~ 0.5.

Turning to “FL-β-Ala-Asn-Arg-Leu-Leu-Leu-Thr-Gly-OH [FL-NR]”, in assay [7], the “EC50 for Phe400Ala relative to WT” value is given as ~ 40 fold.

The values above are taken from PMC9124243 (Cell chemical biology, 2021).
